Reference: ChEMBL document CHEMBL1921760, “Design, synthesis and biological evaluation of 6-pyridylmethylaminopurines as CDK inhibitors” (Bioorg Med Chem, 2011)

System: not listed separately
Experiment: Inhibition of PKA
Conditions: not given

`CC[C@@H](Nc1nc(NCc2ccccc2)c2ncn(C(C)C)c2n1)C(C)(C)O` and `CC[C@H](Nc1nc(NCc2ccccc2)c2ncn(C(C)C)c2n1)C(C)(C)O` are within 1.5-fold of each other in IC50: 191 µM for the first, 200 µM for the second.

`CC[C@H](Nc1nc(NCc2ccccn2)c2ncn(C(C)C)c2n1)C(O)C(C)(C)C` (mixture of isomers) and `CC[C@@H](Nc1nc(NCc2ccccn2)c2ncn(C(C)C)c2n1)C(O)C(C)(C)C` (mixture of isomers) cannot be ordered by IC50: > 200 µM for the first, > 200 µM for the second.

`CC[C@@H](Nc1nc(NCc2ccccn2)c2ncn(C(C)C)c2n1)C(O)C(C)C` (mixture of isomers) and `CCC(O)[C@H](CC)Nc1nc(NCc2ccccn2)c2ncn(C(C)C)c2n1` (mixture of isomers) cannot be ordered by IC50: > 200 µM for the first, > 200 µM for the second.

For `CC[C@@H](Nc1nc(NCc2ccccn2)c2ncn(C(C)C)c2n1)C(C)(C)O`, the IC50 was > 200 µM.

System: not listed separately
Experiment: Metabolic stability in mouse liver microsomes assessed as compound metabolized at 10 uM after 30 mins by LC-MS analysis
Type: ADME, Microsome
Conditions: read-out: Activity

First: CC[C@@H](Nc1nc(NCc2ccccc2)c2ncn(C(C)C)c2n1)C(C)(C)O
Second: CC[C@H](Nc1nc(NCc2ccccc2)c2ncn(C(C)C)c2n1)C(C)(C)O
The metabolised at 0.5 h, 10 µM of the first is lower: 52% for the first, 73% for the second.

Compared with `CC[C@H](Nc1nc(NCc2ccccn2)c2ncn(C(C)C)c2n1)C(O)C(C)(C)C` (mixture of isomers), `CC[C@@H](Nc1nc(NCc2ccccn2)c2ncn(C(C)C)c2n1)C(O)C(C)(C)C` (mixture of isomers) is lower in metabolised at 0.5 h, 10 µM: 97% for the first, 93% for the second.

First: CC[C@@H](Nc1nc(NCc2ccccn2)c2ncn(C(C)C)c2n1)C(O)C(C)C (mixture of isomers)
Second: CCC(O)[C@H](CC)Nc1nc(NCc2ccccn2)c2ncn(C(C)C)c2n1 (mixture of isomers)
The metabolised at 0.5 h, 10 µM of the first is higher: 94% for the first, 85% for the second.

Work on `CC[C@@H](Nc1nc(NCc2ccccn2)c2ncn(C(C)C)c2n1)C(C)(C)O` yielded a metabolised at 0.5 h, 10 µM of 73%.

System: CH1
Experiment: Growth inhibition of doxorubicin-resistant human CH1 cells after 96 hrs by sulforhodamine B assay
Type: functional
Conditions: CH1, 96 h

First: CC[C@@H](Nc1nc(NCc2ccccc2)c2ncn(C(C)C)c2n1)C(C)(C)O
Second: CC[C@@H](Nc1nc(NCc2ccccn2)c2ncn(C(C)C)c2n1)C(C)(C)O
The GI50 of the first is lower: 19.5 µM for the first, > 50 µM for the second.

Compared with `CC[C@H](Nc1nc(NCc2ccccn2)c2ncn(C(C)C)c2n1)C(O)C(C)(C)C` (mixture of isomers), `CC[C@@H](Nc1nc(NCc2ccccn2)c2ncn(C(C)C)c2n1)C(O)C(C)(C)C` (mixture of isomers) is 1.7-fold lower in GI50: 47 µM for the first, 27 µM for the second.

Going from `CC[C@@H](Nc1nc(NCc2ccccn2)c2ncn(C(C)C)c2n1)C(O)C(C)C` (mixture of isomers) to `CCC(O)[C@H](CC)Nc1nc(NCc2ccccn2)c2ncn(C(C)C)c2n1` (mixture of isomers), the GI50 falls from > 50 µM to 26 µM.

System: KM12
Experiment: Growth inhibition of human KM12 cells after 96 hrs by sulforhodamine B assay
Type: functional
Conditions: KM12, 96 h

`CC[C@@H](Nc1nc(NCc2ccccc2)c2ncn(C(C)C)c2n1)C(C)(C)O` and `CC[C@H](Nc1nc(NCc2ccccc2)c2ncn(C(C)C)c2n1)C(C)(C)O` are within 1.5-fold of each other in GI50: 21 µM for the first, 20 µM for the second.

`CC[C@H](Nc1nc(NCc2ccccn2)c2ncn(C(C)C)c2n1)C(O)C(C)(C)C` (mixture of isomers) and `CC[C@@H](Nc1nc(NCc2ccccn2)c2ncn(C(C)C)c2n1)C(O)C(C)(C)C` (mixture of isomers) are within 1.5-fold of each other in GI50: 36 µM for the first, 45 µM for the second.

`CC[C@@H](Nc1nc(NCc2ccccn2)c2ncn(C(C)C)c2n1)C(O)C(C)C` (mixture of isomers) and `CCC(O)[C@H](CC)Nc1nc(NCc2ccccn2)c2ncn(C(C)C)c2n1` (mixture of isomers) cannot be ordered by GI50: > 50 µM for the first, > 50 µM for the second.

With `CC[C@@H](Nc1nc(NCc2ccccn2)c2ncn(C(C)C)c2n1)C(C)(C)O` the GI50 was > 50 µM.

System: HT-29
Experiment: Growth inhibition of human HT-29 cells after 96 hrs by sulforhodamine B assay
Type: functional
Conditions: HT-29, 96 h

`CC[C@@H](Nc1nc(NCc2ccccc2)c2ncn(C(C)C)c2n1)C(C)(C)O` and `CC[C@H](Nc1nc(NCc2ccccc2)c2ncn(C(C)C)c2n1)C(C)(C)O` are the same in GI50: 23 µM for the first, 23 µM for the second.

`CC[C@H](Nc1nc(NCc2ccccn2)c2ncn(C(C)C)c2n1)C(O)C(C)(C)C` (mixture of isomers) and `CC[C@@H](Nc1nc(NCc2ccccn2)c2ncn(C(C)C)c2n1)C(O)C(C)(C)C` (mixture of isomers) are within 1.5-fold of each other in GI50: 28 µM for the first, 34 µM for the second.

`CC[C@@H](Nc1nc(NCc2ccccn2)c2ncn(C(C)C)c2n1)C(O)C(C)C` (mixture of isomers) and `CCC(O)[C@H](CC)Nc1nc(NCc2ccccn2)c2ncn(C(C)C)c2n1` (mixture of isomers) cannot be ordered by GI50: > 50 µM for the first, > 50 µM for the second.

In the case of `CC[C@@H](Nc1nc(NCc2ccccn2)c2ncn(C(C)C)c2n1)C(C)(C)O`, the GI50 is reported as > 50 µM.

System: HCT-116
Experiment: Growth inhibition of human HCT116 cells after 96 hrs by sulforhodamine B assay
Type: functional
Conditions: HCT-116, 96 h

`CC[C@@H](Nc1nc(NCc2ccccc2)c2ncn(C(C)C)c2n1)C(C)(C)O` and `CC[C@H](Nc1nc(NCc2ccccc2)c2ncn(C(C)C)c2n1)C(C)(C)O` are within 1.5-fold of each other in GI50: 20 µM for the first, 16 µM for the second.

Going from `CC[C@H](Nc1nc(NCc2ccccn2)c2ncn(C(C)C)c2n1)C(O)C(C)(C)C` (mixture of isomers) to `CC[C@@H](Nc1nc(NCc2ccccn2)c2ncn(C(C)C)c2n1)C(O)C(C)(C)C` (mixture of isomers), the GI50 falls from > 50 µM to 29 µM.

Compared with `CC[C@@H](Nc1nc(NCc2ccccn2)c2ncn(C(C)C)c2n1)C(O)C(C)C` (mixture of isomers), `CCC(O)[C@H](CC)Nc1nc(NCc2ccccn2)c2ncn(C(C)C)c2n1` (mixture of isomers) is lower in GI50: > 50 µM for the first, 29 µM for the second.

With `CC[C@@H](Nc1nc(NCc2ccccn2)c2ncn(C(C)C)c2n1)C(C)(C)O` the GI50 was > 50 µM.

System: CH1
Experiment: Growth inhibition of doxorubicin-susceptible human CH1 cells after 96 hrs by sulforhodamine B assay
Type: functional
Conditions: CH1, 96 h

`CC[C@@H](Nc1nc(NCc2ccccc2)c2ncn(C(C)C)c2n1)C(C)(C)O` and `CC[C@H](Nc1nc(NCc2ccccc2)c2ncn(C(C)C)c2n1)C(C)(C)O` are within 1.5-fold of each other in GI50: 23 µM for the first, 22 µM for the second.

Compared with `CC[C@H](Nc1nc(NCc2ccccn2)c2ncn(C(C)C)c2n1)C(O)C(C)(C)C` (mixture of isomers), `CC[C@@H](Nc1nc(NCc2ccccn2)c2ncn(C(C)C)c2n1)C(O)C(C)(C)C` (mixture of isomers) is lower in GI50: > 50 µM for the first, 34 µM for the second.

Going from `CC[C@@H](Nc1nc(NCc2ccccn2)c2ncn(C(C)C)c2n1)C(O)C(C)C` (mixture of isomers) to `CCC(O)[C@H](CC)Nc1nc(NCc2ccccn2)c2ncn(C(C)C)c2n1` (mixture of isomers), the GI50 falls from > 50 µM to 33 µM.

For `CC[C@@H](Nc1nc(NCc2ccccn2)c2ncn(C(C)C)c2n1)C(C)(C)O`, the GI50 was > 50 µM.

System: A2780
Experiment: Growth inhibition of cisplatin-susceptible human A2780 cells after 96 hrs by sulforhodamine B assay
Type: functional
Conditions: A2780, 96 h

`CC[C@@H](Nc1nc(NCc2ccccc2)c2ncn(C(C)C)c2n1)C(C)(C)O` and `CC[C@H](Nc1nc(NCc2ccccc2)c2ncn(C(C)C)c2n1)C(C)(C)O` are within 1.5-fold of each other in GI50: 15 µM for the first, 16 µM for the second.

Compared with `CC[C@H](Nc1nc(NCc2ccccn2)c2ncn(C(C)C)c2n1)C(O)C(C)(C)C` (mixture of isomers), `CC[C@@H](Nc1nc(NCc2ccccn2)c2ncn(C(C)C)c2n1)C(O)C(C)(C)C` (mixture of isomers) is 1.7-fold lower in GI50: 38 µM for the first, 23 µM for the second.

First: CC[C@@H](Nc1nc(NCc2ccccn2)c2ncn(C(C)C)c2n1)C(O)C(C)C (mixture of isomers)
Second: CCC(O)[C@H](CC)Nc1nc(NCc2ccccn2)c2ncn(C(C)C)c2n1 (mixture of isomers)
The GI50 of the first is 1.9-fold higher: 40 µM for the first, 21 µM for the second.

For `CC[C@@H](Nc1nc(NCc2ccccn2)c2ncn(C(C)C)c2n1)C(C)(C)O`, the GI50 was 34 µM.

System: A2780
Experiment: Growth inhibition of cisplatin-resistant human A2780 cells after 96 hrs by sulforhodamine B assay
Type: functional
Conditions: A2780, 96 h

`CC[C@@H](Nc1nc(NCc2ccccc2)c2ncn(C(C)C)c2n1)C(C)(C)O` and `CC[C@H](Nc1nc(NCc2ccccc2)c2ncn(C(C)C)c2n1)C(C)(C)O` are within 1.5-fold of each other in GI50: 23 µM for the first, 22 µM for the second.

`CC[C@H](Nc1nc(NCc2ccccn2)c2ncn(C(C)C)c2n1)C(O)C(C)(C)C` (mixture of isomers) and `CC[C@@H](Nc1nc(NCc2ccccn2)c2ncn(C(C)C)c2n1)C(O)C(C)(C)C` (mixture of isomers) cannot be ordered by GI50: > 50 µM for the first, > 50 µM for the second.

Compared with `CC[C@@H](Nc1nc(NCc2ccccn2)c2ncn(C(C)C)c2n1)C(O)C(C)C` (mixture of isomers), `CCC(O)[C@H](CC)Nc1nc(NCc2ccccn2)c2ncn(C(C)C)c2n1` (mixture of isomers) is lower in GI50: > 50 µM for the first, 23 µM for the second.

With `CC[C@@H](Nc1nc(NCc2ccccn2)c2ncn(C(C)C)c2n1)C(C)(C)O` the GI50 was > 50 µM.

Target: Cyclin-dependent kinase 1/cyclin B1 (Homo sapiens, UniProt P06493)
Sequence (P06493 whole entry): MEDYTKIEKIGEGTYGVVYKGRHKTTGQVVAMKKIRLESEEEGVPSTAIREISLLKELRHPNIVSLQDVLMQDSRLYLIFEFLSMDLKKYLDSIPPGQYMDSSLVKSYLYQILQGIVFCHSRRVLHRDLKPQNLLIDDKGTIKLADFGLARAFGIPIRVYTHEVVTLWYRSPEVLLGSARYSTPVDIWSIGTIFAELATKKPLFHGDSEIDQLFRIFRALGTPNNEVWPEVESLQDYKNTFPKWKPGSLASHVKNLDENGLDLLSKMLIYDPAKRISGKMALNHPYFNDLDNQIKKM
Sequence (P14635 whole entry, further chain): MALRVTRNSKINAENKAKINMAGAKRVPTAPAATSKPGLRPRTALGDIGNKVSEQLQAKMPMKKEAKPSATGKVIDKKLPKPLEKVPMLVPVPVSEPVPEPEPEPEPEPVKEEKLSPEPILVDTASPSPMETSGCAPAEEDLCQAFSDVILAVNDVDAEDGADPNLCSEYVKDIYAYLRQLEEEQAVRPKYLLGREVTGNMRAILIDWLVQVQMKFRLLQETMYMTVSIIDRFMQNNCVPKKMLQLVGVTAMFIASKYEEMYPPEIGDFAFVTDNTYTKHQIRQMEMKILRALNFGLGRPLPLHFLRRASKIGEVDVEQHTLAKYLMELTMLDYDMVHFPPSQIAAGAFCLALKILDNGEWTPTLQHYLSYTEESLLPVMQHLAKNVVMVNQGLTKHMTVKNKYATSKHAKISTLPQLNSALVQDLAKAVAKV
Experiment: Inhibition of CDK1/cyclin B
Type: protein-complex assay
Conditions: not given

`CC[C@H](Nc1nc(NCc2ccccn2)c2ncn(C(C)C)c2n1)C(O)C(C)(C)C` (mixture of isomers) and `CC[C@@H](Nc1nc(NCc2ccccn2)c2ncn(C(C)C)c2n1)C(O)C(C)(C)C` (mixture of isomers) are the same in IC50: 200 µM for the first, 200 µM for the second.
